# Columns and labels:
# [1] = test system: rat air pouch model of crystal-induced arthropathy (MSU); test: Rat air pouch model of crystal-induced arthropathy, Example 4 (Compound 2); type: in vivo
# Method: Sodium hydroxide (40 g, Fisher Scientific) was dissolved in de-ionized water (100 mL, dH2O) to provide a 10N solution. Uric acid (16 g, Sigma) was added to de-ionized water (3400 mL) containing sodium hydroxide solution (11.8 mL, 10N) and heated to 60° C. with constant stirring. […] The resulting clear solution was cooled to 4-8° C., resulting in the formation of crystals, which were isolated by filtration, washed three times with de-ionized wa[…]) and dried at 37° C. The dried mono sodium urate crystals were sifted into an air-tight container for storage. […] Methylcellulose (0.4 g, Sigma) was dissolved in de-ionized water (100 mL) to provide a 0.4% solution used as vehicle. […] Test compounds were suspended in vehicle to provide the desired concentrations, and diluted accordingly. […] Male Sprague-Dawley rats (Charles River Laboratories, 160-180 g) were received, individually examined and housed in cages of five rats each. The animals were in apparent good health with no clinical signs of disease or distress. The rats were placed in quarantine with daily inspections, ear notched for identification purposes and shaved at the nape of the neck. The rats were anesthetized (isoflurane), and the nape of the neck was cleansed with 70% isopropanol (Butler Animal Health Supply) followed by povidone-iodine solution (Ricca Chemical Co.). […] The rats were returned to routine housing with no adverse reactions observed. The rats were weighed and sorted into treatment groups based on average body weight. As appropriate, the rats were dosed orally with test compound or vehicle (saline alone). […] Thirty minutes after SC injection or two hours after PO dosing, MSU (15 mL) was injected into the air pouch using an 18 G×2 inch needle fitted to a 20 mL syringe. Control group was injected with 15 mL sterile saline (vehicle). The injection sites were closed (collodion, Macron) and the rats returned to their cages with no adverse effects observed. Four hours after MSU/saline injection, the rats were anesthetized and heparinized saline (5 mL, 10 U/mL) was injected into the air pouch. […] An aliquot of the exudate was transferred to green Eppendorf tubes for total white blood cell (WBC) measurement. After allowing the MSU crystals to settle out for ten minutes, an aliquot of the exudate was transferred to heparinized microtainer tubes (Becton Dickinson) for differential white blood cell counts. The remainder of the exudate was centrifuged and an aliquot of the supernatants was dispensed to labeled clear Eppendorf tubes and stored at -80° C. The rats were exsanguinated into pre-chilled serum separator tubes, processed to serum, and 0.5 mL aliquot was stored at -80° C. in labeled Eppendorf tubes. […] [table]
# [2] = test system: rat air pouch model of crystal-induced arthropathy (MSU); test: Rat air pouch model, Example 5 (Compound 2 in combination with colchicine); type: in vivo
# Method: Sodium hydroxide (40 g, Fisher Scientific) was dissolved in de-ionized water (100 mL, dH2O) to provide a 10N solution. Uric acid (16 g, Sigma) was added to de-ionized water (3400 mL) containing sodium hydroxide solution (11.8 mL, 10N) and heated to 60° C. with constant stirring. […] The resulting clear solution was cooled to 4-8° C., resulting in the formation of crystals, which were isolated by filtration, washed three times with de-ionized wa[…]) and dried at 37° C. The dried mono sodium urate crystals were sifted into an air-tight container for storage. […] Methylcellulose (0.4 g, Sigma) was dissolved in de-ionized water (100 mL) to provide a 0.4% solution used as vehicle. […] Test compounds were suspended in vehicle to provide the desired concentrations, and diluted accordingly. […] Male Sprague-Dawley rats (Charles River Laboratories, 160-180 g) were received, individually examined and housed in cages of five rats each. The animals were in apparent good health with no clinical signs of disease or distress. The rats were placed in quarantine with daily inspections, ear notched for identification purposes and shaved at the nape of the neck. The rats were anesthetized (isoflurane), and the nape of the neck was cleansed with 70% isopropanol (Butler Animal Health Supply) followed by povidone-iodine solution (Ricca Chemical Co.). Sterile air (30 mL, 0.2 μm, Millipore) was injected subcutaneously using a 23 G×11⁄2 inch needle fixed to a 30 mL syringe. The rats were returned to routine housing with no adverse reactions observed. The rats were anesthetized (isoflurane), and the nape of the neck was cleansed with 70% isopropanol (Butler Animal Health Supply) followed by povidone-iodine solution (Ricca Chemical Co.). Sterile air (15 mL, 0.11 μm, Millipore) was injected subcutaneously using a 23 G×11⁄2 inch needle fixed to a 20 mL syringe. The rats were returned to routine housing with no adverse reactions observed. The rats were weighed and sorted into treatment groups based on average body weight. As appropriate, the rats were dosed orally with test compound or vehicle (saline alone). […] Thirty minutes after SC injection or two hours after PO dosing, MSU (15 mL) was injected into the air pouch using an 18 G×2 inch needle fitted to a 20 mL syringe. Control group was injected with 15 mL sterile saline (vehicle). The injection sites were closed (collodion, Macron) and the rats returned to their cages with no adverse effects observed. Four hours after MSU/saline injection, the rats were anesthetized and heparinized saline (5 mL, 10 U/mL) was injected into the air pouch. […] An aliquot of the exudate was transferred to green Eppendorf tubes for total white blood cell (WBC) measurement. After allowing the MSU crystals to settle out for ten minutes, an aliquot of the exudate was transferred to heparinized microtainer tubes (Becton Dickinson) for differential white blood cell counts. The remainder of the exudate was centrifuged and an aliquot of the supernatants was dispensed to labeled clear Eppendorf tubes and stored at -80° C. The rats were exsanguinated into pre-chilled serum separator tubes, processed to serum, and 0.5 mL aliquot was stored at -80° C. in labeled Eppendorf tubes. […] 90 rats were used, divided into 9 groups of 10 animals, as follows: [table]
# [3] = 0.3 umol/kg PO + Colchicine 0.001 mpk SC, Group 6
# [4] = 0.3 umol/kg PO + Colchicine 0.1 mpk SC, Group 8
# [5] = 3.0 umol/kg PO + Colchicine 0.001 mpk SC, Group 7
# [6] = 3.0 umol/kg PO + Colchicine 0.1 mpk SC, Group 9
compound,measurement,setting,value
"COc1cc2c(c(OC)c1OC)-c1ccc(OC)c(=O)cc1[C@@H](NC(C)=O)CC2 [Colchicine, COLCHICINE, reference compound]",Avg Exudate Vol,"[1]; 1 mg/kg SC, Group 3",***6.4 mL
same,Avg Total WBC,"[1]; 1 mg/kg SC, Group 3",**17.6 ×10^6
same,Neutrophils,"[1]; 1 mg/kg SC, Group 3",**11.0 ×10^6
same,Avg Exudate Vol,"[2]; 0.1 mpk (PO), Group 3",9.7 mL
same,Avg Total WBC,"[2]; 0.1 mpk (PO), Group 3",221 ×10^6
same,Neutrophils,"[2]; 0.1 mpk (PO), Group 3",163 ×10^6
"CC[C@@H](Nc1c(Nc2cccc(C(=O)N(C)C)c2O)c(=O)c1=O)c1ccc(C)o1 [Compound 2, (R)-2-hydroxy-N,N-dimethyl-3-((2-((1-(5-methylfuran-2-yl)propyl)amino)-3,4-dioxocyclobut-1-en-1-yl)amino)benzamide]",Avg Exudate Vol,"[1]; 0.3 mg/kg PO, Group 4",10.1 mL
same,Avg Total WBC,"[1]; 0.3 mg/kg PO, Group 4",145.2 ×10^6
same,Neutrophils,"[1]; 0.3 mg/kg PO, Group 4",114.2 ×10^6
same,Avg Exudate Vol,"[1]; 3 mg/kg PO, Group 5",9.3 mL
same,Avg Total WBC,"[1]; 3 mg/kg PO, Group 5",*33.4 ×10^6
same,Neutrophils,"[1]; 3 mg/kg PO, Group 5",*19.8 ×10^6
same,Avg Exudate Vol,"[1]; 30 mg/kg PO, Group 6",***6.8 mL
same,Avg Total WBC,"[1]; 30 mg/kg PO, Group 6",*51.7 ×10^6
same,Neutrophils,"[1]; 30 mg/kg PO, Group 6",**16.0 ×10^6
same,Avg Exudate Vol,[2]; [3],9.6 mL
same,Avg Total WBC,[2]; [3],337 ×10^6
same,Neutrophils,[2]; [3],246 ×10^6
same,Avg Exudate Vol,[2]; [4],7.9 mL
same,Avg Total WBC,[2]; [4],153 ×10^6
same,Neutrophils,[2]; [4],123 ×10^6
same,Avg Exudate Vol,"[2]; 0.3 umol/kg PO, Group 4",9.8 mL
same,Avg Total WBC,"[2]; 0.3 umol/kg PO, Group 4",365 ×10^6
same,Neutrophils,"[2]; 0.3 umol/kg PO, Group 4",268 ×10^6
same,Avg Exudate Vol,[2]; [5],8 mL
same,Avg Total WBC,[2]; [5],88 ×10^6
same,Neutrophils,[2]; [5],26.7 ×10^6
same,Avg Exudate Vol,[2]; [6],7.5 mL
same,Avg Total WBC,[2]; [6],76.8 ×10^6
same,Neutrophils,[2]; [6],27.2 ×10^6
same,Avg Exudate Vol,"[2]; 3.0 umol/kg PO, Group 5",7.0 mL
same,Avg Total WBC,"[2]; 3.0 umol/kg PO, Group 5",78.6 ×10^6
same,Neutrophils,"[2]; 3.0 umol/kg PO, Group 5",16 ×10^6
